Literature values as cited in PMC11748363, “Antimicrobial and Antiproliferative Properties of 2‐Phenyl‐N‐(Pyridin‐2‐yl)acetamides” (Chemical Biology & Drug Design, 2025).
Converted amounts (≈) assume the structure as drawn.

Tested on: Mycobacterium tuberculosis H37Ra
Parameters: method as in Nawrot et al. 2021
Details: previously published N‐pyridinyl benzamides; ref Nawrot et al. 2021; cited from earlier work

COc1cccc(C(=O)Nc2ccccn2)c1 [C00003 R1=H,R2=3-OMe]
MIC Mtb H37Ra (μg/mL), previously published compounds: 62.5 µg/mL (≈ 274 µM)

O=C(Nc1ccccn1)c1ccc(Cl)cc1 [C00003 R1=H,R2=4-Cl]
MIC Mtb H37Ra (μg/mL), previously published compounds: 62.5 µg/mL (≈ 269 µM)

COc1ccc(C(=O)Nc2ccccn2)cc1 [C00003 R1=H,R2=4-OMe]
MIC Mtb H37Ra (μg/mL), previously published compounds: 62.5 µg/mL (≈ 274 µM)

O=C(Nc1ccccn1)c1ccccc1 [C00003 R1=H,R2=H]
MIC Mtb H37Ra (μg/mL), previously published compounds: 250 µg/mL (≈ 1260 µM)
